Laboratory results as given in ChEMBL document CHEMBL1129304, “11-Ketotigogenin cellobioside (pamaqueside): a potent cholesterol absorption inhibitor in the hamster” (J Med Chem, 1996).

Key:
Format in all cases: ADME, organism-based, Canis lupus familiaris
[1] = Pharmacokinetic parameter half-life was determined in fed Beagle dogs after iv administration of 1.5 mg/kg; set-up: dose 1.5 mg/kg, route intravenous; conditions: dog, in vivo
[2] = Pharmacokinetic parameter Cmax has been determined in fed Beagle dogs at a dose of 500 mg/kg; set-up: dose 500 mg/kg; conditions: dog, in vivo
[3] = Bioavailability in fed Beagle dogs at a dose of 500 mg/kg; conditions: dog, in vivo
Canis familiaris = experiment: Pharmacokinetic parameter AUC has been determined in fed Beagle dogs at a dose of 500 mg/kg; set-up: dose 500 mg/kg; conditions: dog, in vivo
[4] = Pharmacokinetic parameter clearance was determined in fed Beagle dogs after iv administration of 1.5 mg/kg; set-up: dose 1.5 mg/kg, route intravenous; conditions: dog, in vivo
[5] = Pharmacokinetic parameter volume was determined in fed Beagle dogs after iv administration of 1.5 mg/kg; set-up: dose 1.5 mg/kg, route intravenous; conditions: dog, in vivo, read-out: Volume

half-life [1]: 4.5 h
Cmax [2]: 110 ng/mL
bioavailability [3]: 0.04%
AUC (Canis familiaris): 2150 ng·h/mL
clearance [4]: 1.4 mL/min/kg
Vd [5]: 0.5 L/kg
SMILES: C[C@@H]1CC[C@@]2(OC1)O[C@H]1C[C@H]3[C@@H]4CC[C@H]5C[C@@H](O[C@@H]6O[C@H](CO)[C@@H](O[C@@H]7O[C@H](CO)[C@@H](O)[C@H](O)[C@H]7O)[C@H](O)[C@H]6O)CC[C@]5(C)[C@H]4C(=O)C[C@]3(C)[C@H]1[C@@H]2C [PAMAQUESIDE]
